Source: ChEMBL document CHEMBL1212755, “Factors influencing pharmacokinetics of prophylactic posaconazole in patients undergoing allogeneic stem cell transplantation” (Antimicrob Agents Chemother, 2010)

Key:
Format in all cases: ADME, organism-based
[1] = Apparent oral clearance in patient undergoing allogenic hematopoietic stem cell transplantation; conditions: human, in vivo
Homo sapiens = organism: Homo sapiens; assay: Drug level in patient undergoing allogenic hematopoietic stem cell transplantation; conditions: in vivo
[2] = Apparent volume of distribution in patient without diarrhea undergoing allogenic hematopoietic stem cell transplantation; conditions: human, in vivo; read-out: Vc/F
[3] = Apparent oral clearance in patient with diarrhea undergoing allogenic hematopoietic stem cell transplantation; conditions: human, in vivo
[4] = Apparent volume of distribution in patient undergoing allogenic hematopoietic stem cell transplantation; conditions: human, in vivo; read-out: Vc/F
[5] = Cmax in patient undergoing allogenic hematopoietic stem cell transplantation; conditions: human, in vivo
[6] = Apparent oral clearance in patient without diarrhea undergoing allogenic hematopoietic stem cell transplantation; conditions: human, in vivo
[7] = Apparent volume of distribution in patient with diarrhea undergoing allogenic hematopoietic stem cell transplantation; conditions: human, in vivo; read-out: Vc/F

## CC[C@@H]([C@H](C)O)n1ncn(-c2ccc(N3CCN(c4ccc(OC[C@@H]5CO[C@@](Cn6cncn6)(c6ccc(F)cc6F)C5)cc4)CC3)cc2)c1=O [POSACONAZOLE]
[1]
  CL/F: 1260 mL/min
Homo sapiens
  Drug uptake: 411 µg/L
[2]
  Vd/F: 2250 L
[3]
  CL/F: 1890 mL/min
[4]
  Vd/F: 835 L
[5]
  Cmax: 654 ng/mL
[6]
  CL/F: 1120 mL/min
[7]
  Vd/F: 3800 L
